Like-named read-outs stand apart in the source and are kept apart here.
Columns and labels:
HepG2 human cells = test system: HepG2 human cells; set-up: method as in http://dx.doi.org/10.6019/CHEMBL3507680; settings: ref http://dx.doi.org/10.6019/CHEMBL3507680; cited from earlier work
[1] = test system: P. falciparum 3D7 asexual blood stages; test: Whole-cell time extended asexual growth assay (pLDH); format: cell-based; settings: Plasmodium falciparum, 72 h; for IC50: dose response retest, read-out: IC50 (µM) Asex stages; for inhibition at 2 µM: primary screen, read-out: %Inh Asex stages @2uM
Procedure: Asexual activity was assayed via Plasmodium lactate dehydrogenase activity (pLDH), a surrogate of asexual parasite growth. […] 2 µM artesunate and DMSO were used as the positive and negative controls, respectively. […] After plate mixing, NBT reduction was measured by absorbance at 650 nm using Envision (Perkin Elmer).

[2] = test system: P. falciparum stage V male gametocytes (male gamete formation); test: P. falciparum dual gamete formation assay (Pf DGFA), male readout (exflagellation), 48 h carry-over format; format: cell-based, Plasmodium falciparum NF54; settings: for IC50 / inhibition at 2 µM: Plasmodium falciparum; for IC50: read-out: Male IC50; for inhibition at 2 µM / %Inhibition Male @2uM: primary screen, single replicate
[3] = test system: P. falciparum stage V female gametocytes (female gamete formation); test: P. falciparum dual gamete formation assay (Pf DGFA), female readout (Pfs25 expression), 48 h carry-over format; format: cell-based, Plasmodium falciparum NF54; settings: for IC50 / inhibition at 2 µM: Plasmodium falciparum; for IC50: read-out: Female IC50; for inhibition at 2 µM / %Inhibition Female @2uM: primary screen, single replicate
[4] = 48 h, dose response retest of primary hits, 48 h incubation

| Structure (SMILES) | %Inh HepG2 @10uM (HepG2 human cells) [%] | IC50 [1] [µM] | inhibition at 2 µM [1] [%] | further results |
| --- | --- | --- | --- | --- |
| COc1cc(CNCC(O)c2ccc(F)c(F)c2)cc2c1OCO2 (stereo not drawn) [DDD00408586] | 29.87 | 3 | 56.7 |  |
| CCCc1nc2c(c(C)c(C)n2CCN(C)C)c(N)c1CC [DDD01026700] | 3.64 | 5.25 | 39.3 |  |
| CCc1c(-c2ccccc2)nc2c(c(C)c(C)n2CCN(C)C)c1N [DDD01026714] | 15.22 | 3.31 | 48.1 |  |
| Cc1c(-c2ccccc2)nc2c(c(C)c(C)n2CCN(C)C)c1N [DDD01026725] | 13.65 | 4.49 | 46.1 |  |
| CC(C)n1ncc2c1NC(=O)CC21C(=O)Nc2c(Cl)ccc(Cl)c21 (stereo not drawn) [DDD01027128] | -12.20 | 2.18 | 96.3 |  |
| O=C(CN1CC(c2nc(C3CC3)no2)C1)N1CCOCC1.O=C(O)C(=O)O [DDD01027902] | -17.5 |  |  | IC50 [2, 4]: 1.18 µM; inhibition at 2 µM ([2]; 48 h incubation): 52.5%; IC50 [3, 4]: 5.81 µM; inhibition at 2 µM ([3]; 48 h incubation): < 30% |
| CC(C)Nc1nc2c(c(NC3CC3)n1)CCN(C1CCOCC1)CC2 [DDD01029612] | -3.76 | 3.54 | 33.7 |  |
| CC(C)Nc1nc2c(c(NC3CC3)n1)CN(C(=O)Cc1ccsc1)CC2 [DDD01029980] | 3.26 | 2.5 | 33.2 |  |
| CC(C)Nc1nc2c(c(NC3CC3)n1)CN(C(=O)c1ccsc1)CC2 [DDD01030030] | -17.20 | 1.15 | 58.7 |  |
| COc1ccc(CN2CCc3c(CNC(=O)CC#N)nn(C)c3C2)cc1.O=C(O)C(F)(F)F.O=C(O)C(F)(F)F [DDD01030619] | -1.4 |  |  | IC50 [2, 4]: 1.34 µM; inhibition at 2 µM ([2]; 48 h incubation): 59.5%; IC50 [3, 4]: > 10 µM; inhibition at 2 µM ([3]; 48 h incubation): < 30% |
| c1cncc(-c2ccc3c(c2)CCC32CCNCC2)c1 [DDD01031368] | 17.78 | 3.86 | 38.8 |  |
| Cc1nnc(N2CC[C@@H](OCC3CC3)[C@@H](Cc3ccccc3)C2)s1.O=C(O)C(F)(F)F [DDD01032950] | -7.86 | 2.17 | 45.4 |  |
| CN(Cc1ccco1)C[C@H]1OC[C@@H]2CCN(Cc3ccccn3)C[C@@H]21.O=C(O)C(F)(F)F.O=C(O)C(F)(F)F.O=C(O)C(F)(F)F [DDD01033585] | -8.48 | 2.59 | 41 |  |
| COc1ccc(N2CCCC3(C2)CN(c2nncs2)CCO3)cc1 (stereo not drawn) [DDD01034473] | 1.09 | 1.48 | 87.8 |  |
| COc1cccc(C2SCC(=O)Nc3ccsc32)c1OC (stereo not drawn) [DDD01034924] | 1.70 | 5.19 | 33.1 |  |
| Cc1[nH]/c(=N\C(=O)c2csc(NC3CCCC3)n2)sc1C [DDD01035522] | 31.16 | 5.98 | 32.6 |  |
| I.c1ccc(Sc2ccc3c(c2)OCO3)c(CNC2=NCCN2)c1 [DDD01035544] | -0.79 | 3.12 | 30.4 |  |
| CC(C)c1nnc2ccc(N3CCC(C(=O)Nc4nccs4)CC3)nn12 [DDD01036018] | 10.73 | 9.35 | 30.4 |  |
| O=C(Nc1cnn(COc2ccc(F)cc2Cl)c1)C1CC1 [DDD01037427] | 9.89 | 3.65 | 46.4 |  |
| CCN(CC)c1nc(Nc2cccc(C(C)O)c2)nc2ccccc12 (stereo not drawn) [DDD01037966] | 65.01 | 1.88 | 44.9 |  |
| CC(O)c1cccc(Nc2nc(NCCO)c3ccccc3n2)c1 (stereo not drawn) [DDD01037968] | -5.65 | 1.67 | 41.9 |  |

| Structure (SMILES) | %Inh HepG2 @10uM (HepG2 human cells) [%] | IC50 [1] [µM] | inhibition at 2 µM [1] [%] | further results |
| --- | --- | --- | --- | --- |
| Oc1ccc(Cl)cc1CNCc1ccccc1Cl [DDD01038243] | -8.63 | 2.29 | 49.1 |  |
| Oc1ccc(Cl)cc1CNCc1cccc(C(F)(F)F)c1 [DDD01038245] | -12.90 | 1.69 | 52.7 |  |
| Cc1ccccc1CNCc1cc(Cl)ccc1O [DDD01038246] | -11.50 | 1.52 | 53.9 |  |
| COc1cccc(CNCc2cccc(Cl)c2)c1O [DDD01038248] | -4.96 | 3.16 | 33.1 |  |
| COc1cccc(CNCc2ccc(F)c(Cl)c2)c1O [DDD01038250] | 27.04 | 1.59 | 68.7 |  |
| COCCCNC(=O)c1cc(C(C)C)nc(N2CCCCCC2)n1 [DDD01038653] | -8.22 | 6.14 | 40.6 |  |
| Cc1nn(C)c(C)c1CCn1cncc1-c1ccc2c(c1)CC(C)N2C.Cl (stereo not drawn) [DDD01056530] | 4.43 | 3.8 | 51 |  |
| Cc1cccc(C)c1Nc1noc2c1CN(C(=O)c1ccnn1C)CC2 [DDD01056796] | 69.80 | 1.46 | 68.6 |  |
| Cc1cccc(C)c1Nc1noc2c1CN(C(=O)c1cn(C)cn1)CC2 [DDD01056797] | 75.15 | 1.55 | 81.2 |  |
| COc1ccc(CNC(Cc2ccsc2)c2ccc(C)cn2)c(OC)c1 (stereo not drawn) [DDD01058868] | 85.33 |  |  | IC50 [2, 4]: > 10 µM; inhibition at 2 µM ([2]; 48 h incubation): < 30%; IC50 [3, 4]: 5.3 µM; inhibition at 2 µM ([3]; 48 h incubation): 30.8% |
| Cc1cccnc1CN1CC[C@H](Oc2cccc(F)c2)[C@@](C)(O)C1 [DDD01060871] | -0.828 |  |  | IC50 [2, 4]: > 10 µM; inhibition at 2 µM ([2]; 48 h incubation): < 30%; IC50 [3, 4]: 6.07 µM; inhibition at 2 µM ([3]; 48 h incubation): 32.8% |
| CC(NCC1CCN(CCO)CC1)c1ccc(C(F)(F)F)cc1 (stereo not drawn) [DDD01073719] | 14.02 |  |  | IC50 [2, 4]: 7.83 µM; inhibition at 2 µM ([2]; 48 h incubation): 34.8%; IC50 [3, 4]: > 10 µM; inhibition at 2 µM ([3]; 48 h incubation): < 30% |
| O=C(C1CC2(CCNCC2)CN1)N1CCN(c2cccc(Cl)c2Cl)CC1 (stereo not drawn) [DDD01243908] | -1.58 |  |  | IC50 [2, 4]: 4.28 µM; inhibition at 2 µM ([2]; 48 h incubation): 65.7%; IC50 [3, 4]: 4.79 µM; inhibition at 2 µM ([3]; 48 h incubation): < 30% |
| COc1ccc(-c2nc(CNCCn3cccn3)cs2)cc1 [DDD01301541] |  |  |  | %Inhibition Male @2uM ([2]; 48 h incubation): <30%; %Inhibition Female @2uM ([3]; 48 h incubation): 31.18% |
| CC(CC(=O)NS(=O)(=O)c1ccc2c(c1)OCCO2)c1ccc(F)cc1 (stereo not drawn) [DDD01301601] |  |  |  | %Inhibition Male @2uM ([2]; 48 h incubation): <30%; %Inhibition Female @2uM ([3]; 48 h incubation): 38.27% |
| c1cnc(-c2nc(CN3CCn4c(nnc4C4CC4)C3)cs2)nc1 [DDD01301615] |  |  |  | %Inhibition Male @2uM ([2]; 48 h incubation): <30%; %Inhibition Female @2uM ([3]; 48 h incubation): 32.48% |
| Cc1nc(C)n(CC2CCCN(CCOc3cccc(C#N)c3)C2)n1 (stereo not drawn) [DDD01302568] |  |  |  | %Inhibition Male @2uM ([2]; 48 h incubation): 85.34%; %Inhibition Female @2uM ([3]; 48 h incubation): <30% |
| CCC(NC(=O)c1ccco1)c1ccccc1OCC(=O)N1CCCC1 (stereo not drawn) [DDD01302666] |  |  |  | %Inhibition Male @2uM ([2]; 48 h incubation): 33.09%; %Inhibition Female @2uM ([3]; 48 h incubation): <30% |
| CC(C)CCN(C)C(=O)c1nc(S(C)(=O)=O)n2ccccc12 [DDD01302801] |  |  |  | %Inhibition Male @2uM ([2]; 48 h incubation): 31.11%; %Inhibition Female @2uM ([3]; 48 h incubation): <30% |
| COc1ccc(NC(=O)c2ccc(-n3ncc(C#N)c3N)cc2)cn1 [DDD01303472] | 3.50 |  |  |  |
| O=C(NCC1(O)CCOc2ccccc21)c1ccc(Br)s1 (stereo not drawn) [OJF-034] |  |  |  | IC50 ([2]; SAR, Fig. 6 and Fig. 7): > 25 µM; IC50 ([3]; SAR, Fig. 7): > 25 µM |

— article PMC6143625, “A high throughput screen for next-generation leads targeting malaria parasite transmission” (Nature Communications, 2018)
